Experimental findings from US11759455B2, “Substituted 1H-imidazo[4,5-b]pyridin-2(3H)-ones and their use as GLUN2B receptor modulators” (JANSSEN PHARMACEUTICA NV, priority 2016, dated 2023) are described below.

As a reminder, the IC50 is the point on the concentration scale where inhibition reaches its midpoint.

T1 sequence (Q13224 27-1484, other chains not shown): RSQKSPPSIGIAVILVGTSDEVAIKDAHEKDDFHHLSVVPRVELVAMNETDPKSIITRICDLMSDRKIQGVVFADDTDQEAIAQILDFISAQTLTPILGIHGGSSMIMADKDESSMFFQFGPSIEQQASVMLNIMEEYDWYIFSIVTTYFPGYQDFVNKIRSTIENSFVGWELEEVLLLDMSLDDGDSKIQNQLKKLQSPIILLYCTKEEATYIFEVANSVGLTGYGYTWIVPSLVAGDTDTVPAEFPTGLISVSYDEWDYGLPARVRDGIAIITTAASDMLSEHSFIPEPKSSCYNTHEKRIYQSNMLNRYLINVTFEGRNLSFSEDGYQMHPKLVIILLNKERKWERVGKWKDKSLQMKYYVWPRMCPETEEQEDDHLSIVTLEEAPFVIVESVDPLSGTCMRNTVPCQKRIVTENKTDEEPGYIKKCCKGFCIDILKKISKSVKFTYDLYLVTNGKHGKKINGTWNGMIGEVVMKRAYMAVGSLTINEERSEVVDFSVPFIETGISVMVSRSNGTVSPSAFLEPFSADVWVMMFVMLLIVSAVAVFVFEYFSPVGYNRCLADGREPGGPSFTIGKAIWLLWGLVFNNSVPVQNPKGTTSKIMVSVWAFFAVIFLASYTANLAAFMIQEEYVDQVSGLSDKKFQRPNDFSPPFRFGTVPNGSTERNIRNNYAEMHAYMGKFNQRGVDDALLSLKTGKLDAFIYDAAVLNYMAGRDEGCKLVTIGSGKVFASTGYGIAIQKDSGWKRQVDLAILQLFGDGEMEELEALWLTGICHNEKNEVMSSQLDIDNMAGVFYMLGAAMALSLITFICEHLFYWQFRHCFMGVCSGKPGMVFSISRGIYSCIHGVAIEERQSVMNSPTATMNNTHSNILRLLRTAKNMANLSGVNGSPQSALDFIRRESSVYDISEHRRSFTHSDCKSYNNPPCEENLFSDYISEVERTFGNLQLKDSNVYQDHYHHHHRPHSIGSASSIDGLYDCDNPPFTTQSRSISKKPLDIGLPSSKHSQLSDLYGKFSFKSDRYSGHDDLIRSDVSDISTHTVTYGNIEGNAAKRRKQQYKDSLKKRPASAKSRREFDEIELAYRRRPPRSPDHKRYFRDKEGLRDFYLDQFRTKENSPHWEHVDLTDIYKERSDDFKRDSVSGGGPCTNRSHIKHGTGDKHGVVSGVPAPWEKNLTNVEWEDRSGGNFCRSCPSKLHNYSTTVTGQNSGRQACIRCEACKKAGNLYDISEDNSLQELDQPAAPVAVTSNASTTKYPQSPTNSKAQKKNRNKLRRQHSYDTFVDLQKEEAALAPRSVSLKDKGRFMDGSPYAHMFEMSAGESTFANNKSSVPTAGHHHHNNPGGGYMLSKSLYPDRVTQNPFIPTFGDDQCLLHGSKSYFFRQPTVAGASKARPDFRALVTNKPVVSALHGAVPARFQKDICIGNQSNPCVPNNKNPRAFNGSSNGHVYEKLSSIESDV

This assay addresses T1, human GluN1/GluN2B NMDA receptors (Homo sapiens, UniProt Q13224).
T1 construct: expressed in transfected cells
Description: Cell-based calcium flux (FLIPR) assay on cloned human NR1/NR2B ion channels expressed in mammalian cells (standard and HTS buffer variants).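 Also: stable Tet-On inducible cell line, Ca2+ influx triggered by glutamate at about EC40 plus 10 µM glycine, fluorescent dye read-out over 5 min, normalized to control wells.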 Particulars: standard assay buffer (0.5 mM MgCl2 in dye loading buffer; 137 mM NaCl, 4 mM KCl in assay buffer), human GluN1/GluN2B, read-out: NR2B IC50 (μM) standard assay.
For `Cn1c(=O)n(Cc2cncc(F)c2)c2cc(-c3ccc(F)c(F)c3F)cnc21` [Example 347, 1-[(5-Fluoro-3-pyridyl)methyl]-3-methyl-6-(2,3,4-trifluorophenyl)imidazo[4,5-b]pyridin-2-one], the IC50 came out at 0.621 µM.
To `Cn1c(=O)n(Cc2cncc(F)c2)c2cc(-c3cccc(Cl)c3)cnc21` [Example 348, 6-(3-Chlorophenyl)-1-[(5-fluoro-3-pyridyl)methyl]-3-methyl-imidazo[4,5-b]pyridin-2-one] belongs 0.213 µM; to `Cn1c(=O)n(Cc2cncc(F)c2)c2cc(-c3cccc(Cl)c3F)cnc21` [Example 349, 6-(3-Chloro-2-fluoro-phenyl)-1-[(5-fluoro-3-pyridyl)methyl]-3-methyl-imidazo[4,5-b]pyridin-2-one], 0.107 µM.
To `Cc1cccc(-c2cnc3c(c2)n(Cc2cncc(F)c2)c(=O)n3C)c1` [Example 350, 1-[(5-Fluoro-3-pyridyl)methyl]-3-methyl-6-(m-tolyl)imidazo[4,5-b]pyridin-2-one] belongs 0.029 µM; to `Cn1c(=O)n(Cc2cncc(F)c2)c2cc(-c3ccc(Cl)c(Cl)c3)cnc21` [Example 351, 6-(3,4-Dichlorophenyl)-1-[(5-fluoro-3-pyridyl)methyl]-3-methyl-imidazo[4,5-b]pyridin-2-one], 0.251 µM; to `Cc1cccc(-c2cnc3c(c2)n(Cc2cncc(F)c2)c(=O)n3C)c1F` [Example 352, 6-(2-Fluoro-3-methyl-phenyl)-1-[(5-fluoro-3-pyridyl)methyl]-3-methyl-imidazo[4,5-b]pyridin-2-one], 0.052 µM.
`Cn1c(=O)n(Cc2cccnc2)c2cc(-c3cc(F)c(F)c(F)c3)cnc21` [Example 353, 3-Methyl-1-(3-pyridylmethyl)-6-(3,4,5-trifluorophenyl)imidazo[4,5-b]pyridin-2-one]: the IC50 amounted to 0.144 µM.
The figure for `Cn1c(=O)n(Cc2cccnc2)c2cc(-c3cc(F)cc(F)c3)cnc21` [Example 354, 6-(3,5-Difluorophenyl)-3-methyl-1-(3-pyridylmethyl)imidazo[4,5-b]pyridin-2-one] is 1.03 µM.
To `Cn1c(=O)n(Cc2cccnc2)c2cc(-c3ccc(F)c(Cl)c3)cnc21` [Example 355, 6-(3-Chloro-4-fluoro-phenyl)-3-methyl-1-(3-pyridylmethyl)imidazo[4,5-b]pyridin-2-one] belongs 0.044 µM; to `Cc1cccc(-c2cnc3c(c2)n(Cc2cccnc2)c(=O)n3C)c1` [Example 356, 3-Methyl-6-(m-tolyl)-1-(3-pyridylmethyl)imidazo[4,5-b]pyridin-2-one], 0.07 µM; to `Cc1cccc(-c2cnc3c(c2)n(Cc2cccnc2)c(=O)n3C)c1F` [Example 357, 6-(2-Fluoro-3-methyl-phenyl)-3-methyl-1-(3-pyridylmethyl)imidazo[4,5-b]pyridin-2-one], 0.118 µM.
To `Cn1c(=O)n(Cc2cccnc2)c2cc(-c3cccc(C(F)(F)F)c3F)cnc21` [Example 358, 6-[2-Fluoro-3-(trifluoromethyl)phenyl]-3-methyl-1-(3-pyridylmethyl)imidazo[4,5-b]pyridin-2-one] belongs 0.049 µM; to `Cn1c(=O)n(Cc2cccnc2)c2cc(-c3cccc(Cl)c3F)cnc21` [Example 359, 6-(3-Chloro-2-fluoro-phenyl)-3-methyl-1-(3-pyridylmethyl)imidazo[4,5-b]pyridin-2-one], 0.096 µM.
In the case of `Cn1c(=O)n(Cc2cccnc2)c2cc(-c3ccc(F)c(C(F)(F)F)c3)cnc21` [Example 360, 6-[4-Fluoro-3-(trifluoromethyl)phenyl]-3-methyl-1-(3-pyridylmethyl)imidazo[4,5-b]pyridin-2-one], the IC50 worked out at 0.034 µM.
To `Cn1c(=O)n(Cc2cccnc2)c2cc(-c3ccc(F)c(F)c3F)cnc21` [Example 361, 3-Methyl-1-(3-pyridylmethyl)-6-(2,3,4-trifluorophenyl)imidazo[4,5-b]pyridin-2-one] belongs 1.54 µM; to `Cn1c(=O)n(Cc2cccnc2)c2cc(-c3cccc(C(F)(F)F)c3)cnc21` [Example 362, 3-Methyl-1-(3-pyridylmethyl)-6-[3-(trifluoromethyl)phenyl]imidazo[4,5-b]pyridin-2-one], 0.105 µM.
Regarding `Cn1c(=O)n(Cc2cccnc2)c2cc(-c3cccc(C(F)F)c3)cnc21` [Example 363, 6-[3-(Difluoromethyl)phenyl]-3-methyl-1-(3-pyridylmethyl)imidazo[4,5-b]pyridin-2-one], the IC50 came to 0.053 µM.
For the compound `Cn1c(=O)n(Cc2cccnc2)c2cc(-c3ccc(C(F)(F)F)s3)cnc21` [Example 364, 3-Methyl-1-(3-pyridylmethyl)-6-[5-(trifluoromethyl)-2-thienyl]imidazo[4,5-b]pyridin-2-one], the IC50 is 0.168 µM.
Consider `Cc1cc(-c2cnc3c(c2)n(Cc2cccnc2)c(=O)n3C)sc1Cl` [Example 365, 6-(5-Chloro-4-methyl-2-thienyl)-3-methyl-1-(3-pyridylmethyl)imidazo[4,5-b]pyridin-2-one], for which the half-maximal inhibitory concentration (IC50) was 0.063 µM.
The figure for `Cn1c(=O)n(Cc2cncc(Cl)c2)c2cc(-c3cccc(C(F)(F)F)c3)cnc21` [Example 366, 1-[(5-Chloro-3-pyridyl)methyl]-3-methyl-6-[3-(trifluoromethyl)phenyl]imidazo[4,5-b]pyridin-2-one] is 0.433 µM; for `Cc1cc(-c2cnc3c(c2)n(Cc2cncc(Cl)c2)c(=O)n3C)ccc1F` [Example 367, 1-[(5-Chloro-3-pyridyl)methyl]-6-(4-fluoro-3-methyl-phenyl)-3-methyl-imidazo[4,5-b]pyridin-2-one] it is 0.117 µM; for `Cc1c(F)ccc(-c2cnc3c(c2)n(Cc2cncc(Cl)c2)c(=O)n3C)c1F` [Example 368, 1-[(5-Chloro-3-pyridyl)methyl]-6-(2,4-difluoro-3-methyl-phenyl)-3-methyl-imidazo[4,5-b]pyridin-2-one] it is 0.356 µM.
The figure for `Cn1c(=O)n(Cc2cncc(Cl)c2)c2cc(-c3ccc(F)c(F)c3)cnc21` [Example 369, 1-[(5-Chloro-3-pyridyl)methyl]-6-(3,4-difluorophenyl)-3-methyl-imidazo[4,5-b]pyridin-2-one] is 0.096 µM; for `Cn1c(=O)n(Cc2cncc(Cl)c2)c2cc(-c3cc(F)c(F)c(F)c3)cnc21` [Example 370, 1-[(5-Chloro-3-pyridyl)methyl]-3-methyl-6-(3,4,5-trifluorophenyl)imidazo[4,5-b]pyridin-2-one] it is 0.131 µM.
To `Cc1cccc(-c2cnc3c(c2)n(Cc2cncc(Cl)c2)c(=O)n3C)c1F` [Example 371, 1-[(5-Chloro-3-pyridyl)methyl]-6-(2-fluoro-3-methyl-phenyl)-3-methyl-imidazo[4,5-b]pyridin-2-one] belongs 0.19 µM; to `Cc1cc(-c2cnc3c(c2)n(Cc2cncc(Cl)c2)c(=O)n3C)sc1Cl` [Example 372, 6-(5-Chloro-4-methyl-2-thienyl)-1-[(5-chloro-3-pyridyl)methyl]-3-methyl-imidazo[4,5-b]pyridin-2-one], 6.64 µM; to `Cn1c(=O)n(Cc2cncc(Cl)c2)c2cc(-c3ccc(C(F)(F)F)s3)cnc21` [Example 373, 1-[(5-Chloro-3-pyridyl)methyl]-3-methyl-6-[5-(trifluoromethyl)-2-thienyl]imidazo[4,5-b]pyridin-2-one], 9.72 µM.
